Assay results reported in patent US8562998B2, “Targeting of antigen presenting cells with immunonanotherapeutics” (President and Fellows of Harvard College, priority 2008, dated 2013).

Test system: anti-nicotine IgG
Experiment: Anti-nicotine IgG titers in immunized mice (ELISA)
Assay type: in vivo, C57BL6 mice
Settings: immunized day 0, boosted after 2, 4 and 8 weeks

In the case of `CN1CCCC1c1cccnc1` (stereo not shown) [free nicotine, nicotine], the “production of nicotine antibodies” value is reported as “does not elicit the production of nicotine antibodies”.
